Measured values taken from patent publication US11505543B2, “4-oxo-3,4-dihydroquinazoline compounds as inhibitors of human immunodeficiency virus replication” (VIIV HEALTHCARE UK (NO.5) LIMITED, priority 2018, dated 2022).

Key:
[1] = test system: recombinant NL4-3 virus (nef section replaced with Renilla luciferase gene) in MT-2 cells; test: HIV cell culture assay (antiviral activity, luciferase readout); assay type: cell-based; settings: Renilla, NL43, MT-2 cells infected for 4-5 days with recombinant NL4-3 Renilla luciferase virus, serial dilutions of compound
How it was run: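 Test compound in serial dilution was present while MT-2 cells were infected for 4–5 days with recombinant NL4-3 virus made in 293T cells. Antiviral activity was quantified as Renilla luciferase activity, read with a live-cell substrate. EC50 came from the median-effect equation.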

[2] = Compound cytotoxicity, XTT-based colorimetric assay; assay type: cell-based; settings: human, uninfected MT2 cells, day 4, XTT
How it was run: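 Run under the antiviral-assay protocol but without virus. Viability was read on day 4 and CC50 values were derived from the readout.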

| SMILES | EC50 [1] [nM] | CC50 at 4 day [2] [nM] |
| --- | --- | --- |
| Cn1nc(NS(C)(=O)=O)c2c(Cl)ccc(-n3c([C@H](Cc4cc(F)cc(F)c4)NC(=O)Cn4nc(C(F)F)c5c4C(F)(F)[C@@H]4C[C@H]54)nc4cc(-c5cnccc5F)ccc4c3=O)c21 (atropisomer, axis not shown; (aR)) [Example 96, N-((S)-1-(3-(4-chloro-1-methyl-3-(methylsulfonamido)-1H-indazol-7-yl)-7-(4-fluoropyridin-3-yl)-4-oxo-3,4-dihydroquinazolin-2-yl)-2-(3,5-difluorophenyl)ethyl)-2-((3bS,4aR)-3-(difluoromethyl)-5,5-difluoro-3b,4,4a,5-tetrahydro-1H-cyclopropa[3,4]cyclopenta[1,2-c]pyrazol-1-yl)acetamide] | 0.076 | > 1000 |
| Cn1nc(NS(C)(=O)=O)c2c(Cl)ccc(-n3c([C@H](Cc4cc(F)cc(F)c4)NC(=O)Cn4nc(C(F)F)c5c4C(F)(F)[C@@H]4C[C@H]54)nc4cc(-c5ccc(F)c(C#N)c5)ccc4c3=O)c21 (atropisomer, axis not shown; (aR)) [Example 97, N-((S)-1-(3-(4-chloro-1-methyl-3-(methylsulfonamido)-1H-indazol-7-yl)-7-(3-cyano-4-fluorophenyl)-4-oxo-3,4-dihydroquinazolin-2-yl)-2-(3,5-difluorophenyl)ethyl)-2-((3bS,4aR)-3-(difluoromethyl)-5,5-difluoro-3b,4,4a,5-tetrahydro-1H-cyclopropa[3,4]cyclopenta[1,2-c]pyrazol-1-yl)acetamide] | 0.4 | > 1000 |
| Cn1nc(NS(C)(=O)=O)c2c(Cl)ccc(-n3c([C@H](Cc4cc(F)cc(F)c4)NC(=O)Cn4nc(C(F)F)c5c4C(F)(F)[C@@H]4C[C@H]54)nc4cc(-c5ccc(F)c(CO)c5)ccc4c3=O)c21 (atropisomer, axis not shown; (aR)) [Example 98, N-((S)-1-(3-(4-chloro-1-methyl-3-(methylsulfonamido)-1H-indazol-7-yl)-7-(4-fluoro-3-(hydroxymethyl)phenyl)-4-oxo-3,4-dihydroquinazolin-2-yl)-2-(3,5-difluorophenyl)ethyl)-2-((3bS,4aR)-3-(difluoromethyl)-5,5-difluoro-3b,4,4a,5-tetrahydro-1H-cyclopropa[3,4]cyclopenta[1,2-c]pyrazol-1-yl)acetamide] | 0.39 | > 1000 |
| Cn1nc(NS(C)(=O)=O)c2c(Cl)ccc(-n3c([C@H](Cc4cc(F)cc(F)c4)NC(=O)Cn4nc(C(F)F)c5c4C(F)(F)[C@@H]4C[C@H]54)nc4cc(-c5cc(F)ccc5F)ccc4c3=O)c21 (atropisomer, axis not shown; (aR)) [Example 99, N-((S)-1-(3-(4-chloro-1-methyl-3-(methylsulfonamido)-1H-indazol-7-yl)-7-(2,5-difluorophenyl)-4-oxo-3,4-dihydroquinazolin-2-yl)-2-(3,5-difluorophenyl)ethyl)-2-((3bS,4aR)-3-(difluoromethyl)-5,5-difluoro-3b,4,4a,5-tetrahydro-1H-cyclopropa[3,4]cyclopenta[1,2-c]pyrazol-1-yl)acetamide] | 0.68 | > 1000 |
| Cn1nc(NS(C)(=O)=O)c2c(Cl)ccc(-n3c([C@H](Cc4cc(F)cc(F)c4)NC(=O)Cn4nc(C(F)F)c5c4C(F)(F)[C@@H]4C[C@H]54)nc4cc(-c5ccc(C(=O)O)cc5)ccc4c3=O)c21 (atropisomer, axis not shown; (aR)) [Example 100, 4-(3-(4-chloro-1-methyl-3-(methylsulfonamido)-1H-indazol-7-yl)-2-((S)-1-(2-((3bS,4aR)-3-(difluoromethyl)-5,5-difluoro-3b,4,4a,5-tetrahydro-1H-cyclopropa[3,4]cyclopenta[1,2-c]pyrazol-1-yl)acetamido)-2-(3,5-difluorophenyl)ethyl)-4-oxo-3,4-dihydroquinazolin-7-yl)benzoic acid] | 6.5 | > 1000 |
| Cn1nc(NS(C)(=O)=O)c2c(Cl)ccc(-n3c([C@H](Cc4cc(F)cc(F)c4)NC(=O)Cn4nc(C(F)F)c5c4C(F)(F)[C@@H]4C[C@H]54)nc4cc(-c5ccc(-c6ccccc6)cc5)ccc4c3=O)c21 (atropisomer, axis not shown; (aR)) [Example 101, N-((S)-1-(7-([1,1′-biphenyl]-4-yl)-3-(4-chloro-1-methyl-3-(methylsulfonamido)-1H-indazol-7-yl)-4-oxo-3,4-dihydroquinazolin-2-yl)-2-(3,5-difluorophenyl)ethyl)-2-((3bS,4aR)-3-(difluoromethyl)-5,5-difluoro-3b,4,4a,5-tetrahydro-1H-cyclopropa[3,4]cyclopenta[1,2-c]pyrazol-1-yl)acetamide] | 62 | > 1000 |
| Cn1nc(NS(C)(=O)=O)c2c(Cl)ccc(-n3c([C@H](Cc4cc(F)cc(F)c4)NC(=O)Cn4nc(C(F)F)c5c4C(F)(F)[C@@H]4C[C@H]54)nc4cc(-c5cc(F)cc(F)c5)ccc4c3=O)c21 (atropisomer, axis not shown; (aR)) [Example 103, N-((S)-1-(3-(4-chloro-1-methyl-3-(methylsulfonamido)-1H-indazol-7-yl)-7-(3,5-difluorophenyl)-4-oxo-3,4-dihydroquinazolin-2-yl)-2-(3,5-difluorophenyl)ethyl)-2-((3bS,4aR)-3-(difluoromethyl)-5,5-difluoro-3b,4,4a,5-tetrahydro-1H-cyclopropa[3,4]cyclopenta[1,2-c]pyrazol-1-yl)acetamide] | 0.88 | > 1000 |
| Cn1nc(NS(C)(=O)=O)c2c(Cl)ccc(-n3c([C@H](Cc4cc(F)cc(F)c4)NC(=O)Cn4nc(C(F)F)c5c4C(F)(F)[C@@H]4C[C@H]54)nc4cc(-c5c(Cl)cccc5Cl)ccc4c3=O)c21 (atropisomer, axis not shown; (aR)) [Example 104, N-((S)-1-(3-(4-chloro-1-methyl-3-(methylsulfonamido)-1H-indazol-7-yl)-7-(2,6-dichlorophenyl)-4-oxo-3,4-dihydroquinazolin-2-yl)-2-(3,5-difluorophenyl)ethyl)-2-((3bS,4aR)-3-(difluoromethyl)-5,5-difluoro-3b,4,4a,5-tetrahydro-1H-cyclopropa[3,4]cyclopenta[1,2-c]pyrazol-1-yl)acetamide] | 0.68 | > 1000 |
| Cn1nc(NS(C)(=O)=O)c2c(Cl)ccc(-n3c([C@H](Cc4cc(F)cc(F)c4)NC(=O)Cn4nc(C(F)F)c5c4C(F)(F)[C@@H]4C[C@H]54)nc4cc(-c5ccc(F)cc5CO)ccc4c3=O)c21 (atropisomer, axis not shown; (aR)) [Example 105, N-((S)-1-(3-(4-chloro-1-methyl-3-(methylsulfonamido)-1H-indazol-7-yl)-7-(4-fluoro-2-(hydroxymethyl)phenyl)-4-oxo-3,4-dihydroquinazolin-2-yl)-2-(3,5-difluorophenyl)ethyl)-2-((3bS,4aR)-3-(difluoromethyl)-5,5-difluoro-3b,4,4a,5-tetrahydro-1H-cyclopropa[3,4]cyclopenta[1,2-c]pyrazol-1-yl)acetamide] | 0.34 | > 1000 |
| Cn1nc(NS(C)(=O)=O)c2c(Cl)ccc(-n3c([C@H](Cc4cc(F)cc(F)c4)NC(=O)Cn4nc(C(F)F)c5c4C(F)(F)[C@@H]4C[C@H]54)nc4cc(-c5ccccc5Oc5ccccc5)ccc4c3=O)c21 (atropisomer, axis not shown; (aR)) [Example 107, N-((S)-1-(3-(4-chloro-1-methyl-3-(methylsulfonamido)-1H-indazol-7-yl)-4-oxo-7-(2-phenoxyphenyl)-3,4-dihydroquinazolin-2-yl)-2-(3,5-difluorophenyl)ethyl)-2-((3bS,4aR)-3-(difluoromethyl)-5,5-difluoro-3b,4,4a,5-tetrahydro-1H-cyclopropa[3,4]cyclopenta[1,2-c]pyrazol-1-yl)acetamide] | 10 | > 1000 |
| Cn1nc(NS(C)(=O)=O)c2c(Cl)ccc(-n3c([C@H](Cc4cc(F)cc(F)c4)NC(=O)Cn4nc(C(F)F)c5c4C(F)(F)[C@@H]4C[C@H]54)nc4cc(-c5cc(F)c(F)c(F)c5)ccc4c3=O)c21 (atropisomer, axis not shown; (aR)) [Example 108, N-((S)-1-(3-(4-chloro-1-methyl-3-(methylsulfonamido)-1H-indazol-7-yl)-4-oxo-7-(3,4,5-trifluorophenyl)-3,4-dihydroquinazolin-2-yl)-2-(3,5-difluorophenyl)ethyl)-2-((3bS,4aR)-3-(difluoromethyl)-5,5-difluoro-3b,4,4a,5-tetrahydro-1H-cyclopropa[3,4]cyclopenta[1,2-c]pyrazol-1-yl)acetamide] | 0.78 | > 1000 |
| Cn1nc(NS(C)(=O)=O)c2c(Cl)ccc(-n3c([C@H](Cc4cc(F)cc(F)c4)NC(=O)Cn4nc(C(F)F)c5c4C(F)(F)[C@@H]4C[C@H]54)nc4cc(-c5ccccc5S(C)(=O)=O)ccc4c3=O)c21 (atropisomer, axis not shown; (aR)) [Example 109, N-((S)-1-(3-(4-chloro-1-methyl-3-(methylsulfonamido)-1H-indazol-7-yl)-7-(2-(methylsulfonyl)phenyl)-4-oxo-3,4-dihydroquinazolin-2-yl)-2-(3,5-difluorophenyl)ethyl)-2-((3bS,4aR)-3-(difluoromethyl)-5,5-difluoro-3b,4,4a,5-tetrahydro-1H-cyclopropa[3,4]cyclopenta[1,2-c]pyrazol-1-yl)acetamide] | 0.11 | > 1000 |
